What was measured:
Motesanib + Dasatinib = compound: CC1(C)CNc2cc(NC(=O)c3cccnc3NCc3ccncc3)ccc21 [Motesanib] + Cc1nc(Nc2ncc(C(=O)Nc3c(C)cccc3Cl)s2)cc(N2CCN(CCO)CC2)n1 [Dasatinib] (partner 0.075 µM); experiment: relative viability (nuclei count vs DMSO), 5 days (fraction); higher = more cells survive
Procedure, shortened: (§1)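 Relative viability was taken as the ratio of nuclei in treated wells to nuclei in vehicle wells. Lung cancer cell lines in 1536-well plates received compounds by pin tool one day after seeding, either one drug alone or a fixed anchor-drug dose plus five library-drug doses (not always all listed) in √10 steps. Nuclei were counted on 4× images after 5 days of treatment, and values are medians of duplicate plates.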

Motesanib + Luminespib = compound: CC1(C)CNc2cc(NC(=O)c3cccnc3NCc3ccncc3)ccc21 [Motesanib] + CCNC(=O)c1noc(-c2cc(C(C)C)c(O)cc2O)c1-c1ccc(CN2CCOCC2)cc1 [Luminespib] (partner 0.01 µM); experiment: as above
Procedure, shortened: as §1

| Cell Line | relative viability (Motesanib + Dasatinib; first compound 0.01 µM) | relative viability (Motesanib + Dasatinib; first compound 0.03162 µM) | relative viability (Motesanib + Dasatinib; first compound 0.1 µM) | relative viability (Motesanib + Dasatinib; first compound 0.3162 µM) | relative viability (Motesanib + Dasatinib; first compound 1 µM) | relative viability (Motesanib + Luminespib; first compound 0.01 µM) | relative viability (Motesanib + Luminespib; first compound 0.03162 µM) | relative viability (Motesanib + Luminespib; first compound 0.1 µM) | relative viability (Motesanib + Luminespib; first compound 0.3162 µM) | relative viability (Motesanib + Luminespib; first compound 1 µM) |
| --- | --- | --- | --- | --- | --- | --- | --- | --- | --- | --- |
| LXF-289 | 0.258 | 0.148 | 0.257 | 0.256 | 0.267 | 0.639 | 0.71 | 0.655 | 0.724 | 0.743 |
| NCI-H2009 | 0.286 | 0.245 | 0.304 | 0.314 | 0.346 | 1.01 | 1.04 | 0.945 | 1.07 | 1.01 |
| NCI-H522 | 0.754 | 0.835 | 0.921 | 0.862 | 0.864 |  | 1.14 | 1.22 | 1.18 | 1.1 |
| NCI-H2405 |  | 0.196 | 0.232 | 0.283 | 0.208 |  | 0.536 | 0.741 | 0.689 | 0.813 |
| NCI-H1755 | 0.381 | 0.426 | 0.463 | 0.48 | 0.466 | 0.492 | 0.505 | 0.353 | 0.445 | 0.315 |
| LOU-NH91 | 0.515 | 0.536 | 0.621 | 0.594 | 0.586 | 0.38 | 0.364 | 0.332 | 0.379 | 0.393 |
| NCI-H3122 | 0.705 | 0.825 | 0.677 | 0.893 | 0.916 | 0.0808 | 0.0851 | 0.0914 | 0.0799 | 0.0833 |
| HCC-827 | 0.308 | 0.307 | 0.293 | 0.274 | 0.228 | 0.777 | 0.809 | 0.775 | 0.75 | 0.576 |
| SK-LU-1 | 0.189 | 0.189 | 0.183 | 0.198 | 0.209 | 0.219 | 0.188 | 0.195 | 0.204 | 0.158 |
| NCI-H1975 | 0.363 | 0.328 | 0.397 | 0.324 | 0.312 | 0.275 | 0.203 | 0.224 | 0.261 | 0.361 |
| NCI-H1651 | 0.408 | 0.339 | 0.384 | 0.451 | 0.432 | 0.673 | 0.89 | 0.8 | 0.921 | 0.892 |
| NCI-H441 | 0.594 | 0.627 | 0.604 | 0.613 | 0.642 | 0.274 | 0.314 | 0.333 | 0.302 | 0.269 |
| LCLC-103H | 0.432 | 0.444 | 0.44 | 0.504 | 0.52 | 0.92 | 0.92 | 0.996 | 1.04 | 0.98 |
| LCLC-97TM1 | 0.838 | 0.801 | 0.797 | 0.86 | 0.773 | 0.635 | 0.809 | 0.707 | 0.813 | 0.793 |
| NCI-H727 | 0.39 | 0.241 | 0.404 | 0.448 | 0.34 | 0.292 | 0.261 | 0.729 | 0.332 | 0.352 |
| NCI-H1355 | 0.74 | 0.548 | 0.717 | 0.732 | 0.684 | 0.719 | 0.659 | 0.658 | 0.77 | 0.637 |
| HOP-62 | 0.658 | 0.6 | 0.715 | 0.692 | 0.757 | 0.942 | 0.834 | 0.954 | 0.853 | 0.935 |
| NCI-H2085 | 0.286 | 0.204 | 0.225 | 0.252 | 0.23 | 0.47 | 0.434 | 0.428 | 0.438 | 0.462 |
| SW 900 | 0.545 | 0.714 | 0.858 | 0.611 | 0.461 | 0.172 | 0.181 | 0.182 | 0.168 | 0.167 |

From the supplement of paper PMC10307832
